Test results from US12662451B2, “Chemical compounds and uses thereof” (GLAXOSMITHKLINE INTELLECTUAL PROPERTY (NO.4) LIMITED, priority 2023, dated 2026).

Tests used:
[1] = molecular target: T1, recombinant full-length WRN protein (1-1432) (Homo sapiens, UniProt Q14191); test: WRN unwinding activity, fluorogenic 384-well assay (Example A); format: biochemical; details: WRN unwinding activity, 4 hr; Table 2; read-out: 4 hr UNW pIC50 (converted)
T1 construct: recombinant full-length WRN protein (1-1432)
T1 sequence (Q14191 whole entry): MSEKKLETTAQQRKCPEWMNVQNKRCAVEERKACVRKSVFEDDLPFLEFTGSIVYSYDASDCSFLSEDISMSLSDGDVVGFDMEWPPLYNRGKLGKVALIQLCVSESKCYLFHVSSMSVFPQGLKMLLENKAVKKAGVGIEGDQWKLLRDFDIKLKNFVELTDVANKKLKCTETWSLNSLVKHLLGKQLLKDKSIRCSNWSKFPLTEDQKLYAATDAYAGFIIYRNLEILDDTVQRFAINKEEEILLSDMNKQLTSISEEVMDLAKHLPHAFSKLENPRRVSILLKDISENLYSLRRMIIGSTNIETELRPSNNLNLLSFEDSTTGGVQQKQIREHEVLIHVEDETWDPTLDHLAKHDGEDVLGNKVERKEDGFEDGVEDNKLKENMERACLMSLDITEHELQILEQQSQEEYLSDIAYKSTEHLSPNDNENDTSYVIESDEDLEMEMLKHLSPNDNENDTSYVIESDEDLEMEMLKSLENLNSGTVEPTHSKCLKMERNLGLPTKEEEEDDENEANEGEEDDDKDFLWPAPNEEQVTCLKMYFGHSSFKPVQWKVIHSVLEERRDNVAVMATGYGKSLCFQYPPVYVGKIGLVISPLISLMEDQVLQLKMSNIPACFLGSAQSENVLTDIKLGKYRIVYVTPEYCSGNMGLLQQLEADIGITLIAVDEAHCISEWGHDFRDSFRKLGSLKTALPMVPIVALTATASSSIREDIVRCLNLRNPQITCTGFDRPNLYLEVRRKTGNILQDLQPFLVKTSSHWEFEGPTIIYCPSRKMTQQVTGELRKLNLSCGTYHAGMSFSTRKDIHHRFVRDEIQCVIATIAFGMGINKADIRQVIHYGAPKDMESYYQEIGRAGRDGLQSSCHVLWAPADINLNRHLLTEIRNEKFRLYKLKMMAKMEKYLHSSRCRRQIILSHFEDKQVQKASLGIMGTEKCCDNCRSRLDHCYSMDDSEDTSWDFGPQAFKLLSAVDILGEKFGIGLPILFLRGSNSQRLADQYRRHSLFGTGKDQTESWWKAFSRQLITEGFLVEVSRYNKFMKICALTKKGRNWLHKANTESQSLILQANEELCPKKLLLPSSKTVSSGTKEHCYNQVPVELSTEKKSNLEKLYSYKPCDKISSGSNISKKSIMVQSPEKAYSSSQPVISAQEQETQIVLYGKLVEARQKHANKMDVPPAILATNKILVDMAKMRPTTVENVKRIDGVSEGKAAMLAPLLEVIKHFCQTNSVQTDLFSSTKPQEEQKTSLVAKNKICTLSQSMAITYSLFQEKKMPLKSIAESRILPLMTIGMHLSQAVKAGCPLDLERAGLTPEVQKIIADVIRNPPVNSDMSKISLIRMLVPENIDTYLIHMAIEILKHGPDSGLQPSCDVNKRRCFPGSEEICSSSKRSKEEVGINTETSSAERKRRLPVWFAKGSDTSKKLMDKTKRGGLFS
Experimental: Functional WRN unwinding activity can be measured using a fluorogenic plate based 384 well assay configured to measure the separation of labeled double stranded DNA substrate. Compounds were dosed out in neat DMSO with a 1:3 serial dilution scheme. 100 nL of compound was stamped into Greiner low volume black assay plates (Greiner Cat #784076) using the Echo Acoustic Dispenser to generate assay ready plates. All solutions were prepared in assay buffer (25 mM TRIS (pH8.0), 5 mM NaCl, 2 mM MgCl2, 1 mM DTT, 0.05% BSA) for this 10 μL low volume reaction. To prepare the solutions, a 2×WRN Enzyme cocktail was made containing 200 pM of recombinant full-length WRN protein (1-1432). A 2× Substrate cocktail was made to consist of both 200 μM ATP (any ultrapure ATP sample) and 12 nM of the fluorescent quenched labeled double stranded DNA oligomer (IDT Custom synthesis; 5′-5IABkFQ (SEQ ID NO. 1)/GCACTGGCCGTCGTTTTACGGTCGTGACT-3′ (SEQ ID NO. 2): 5′-TTTTTTACTTAACGACGGCCAGTGC (SEQ ID NO. 3)/36-TAMTSP/-3′ (SEQ ID NO. 4)). To start the reaction, 5 μL of assay buffer was added to a single column to serve as the low control. Following this, 5 μL of 2×WRN Enzyme was added in all wells except the buffer low control wells. The reaction plate was covered and incubated at ambient temperature for 4 hours to allow for time dependent inhibition if it existed. After 4 hours, the addition of 5 μL of 2×-ATP/DNA substrate cocktail was added across all wells of the assay plate. This initiated the reaction, as the plate was incubated at ambient temperature for 60 minutes for the unwinding reaction to occur. A 10 mM EDTA solution was prepared and added at 5 μL across the entire plate after 60 minutes to quench the samples for an endpoint measurement. Fluorescent intensity was measured using excitation and emission wavelengths of 525 nm and 598 nm, respectively. High florescent intensity (DMSO with buffer) represents full inhibition of unwinding activity and low florescent intensity (DMSO with enzyme) represents no inhibition of unwinding activity. The potency of the compounds was determined using a four-parameter inhibition model to generate pIC50, Hill Slope, maximum inhibition (see Table 2).

[2] = tested on: SW48 human colorectal cancer cells (MSI-H cancer cells); test: SW48 cell viability, CellTiter-Glo, 120 hours (Example B); details: Homo sapiens, SW48, 120 h, read-out: SW48 pCC50, SW48 cell viability, 120 hours incubation (converted); Table 2

SMILES	IC50 [1]	CC50 [2]
O=C(O)[C@@H]1[C@@H](c2ccc([C@H]3CCCOCC3)cc2)CCC[C@H]1C(=O)Nc1ccc(C(F)(F)F)cc1F (racemic) [Example 59, 1:1 Mixture of (1R,2R,6S)-2-((2-fluoro-4-(trifluoromethyl)phenyl)carbamoyl)-6-(4-((S)-oxepan-4-yl)phenyl)cyclohexane-1-carboxylic acid AND (1R,2R,6S)-2-((2-fluoro-4-(trifluoromethyl)phenyl)carbamoyl)-6-(4-((R)-oxepan-4-yl)phenyl)cyclohexane-1-carboxylic acid]	0.794 µM	
O=C(O)[C@@H]1[C@@H](c2ccc([C@H]3CC34CCOCC4)cc2)CCC[C@H]1C(=O)Nc1ccc(C(F)(F)F)cc1F (racemic) [Example 65, 1:1 Mixture of (1R,2S,6R)-2-(4-((S)-6-oxaspiro[2.5]octan-1-yl)phenyl)-6-((2-fluoro-4-(trifluoromethyl)phenyl)carbamoyl)cyclohexane-1-carboxylic acid AND (1R,2S,6R)-2-(4-((R)-6-oxaspiro[2.5]octan-1-yl)phenyl)-6-((2-fluoro-4-(trifluoromethyl)phenyl)carbamoyl)cyclohexane-1-carboxylic acid]	0.0501 µM	
C=CC1COC[C@@H]1c1ccc([C@H]2CCC[C@@H](C(=O)Nc3ccc(C(F)(F)F)cc3F)[C@@H]2C(=O)O)cc1 (mixture of isomers) [Example 66, 1:1 Mixture of (1R,2R,6S)-2-((2-fluoro-4-(trifluoromethyl)phenyl)carbamoyl)-6-(4-((3S)-4-vinyltetrahydrofuran-3-yl)phenyl)cyclohexane-1-carboxylic acid AND (1R,2R,6S)-2-((2-fluoro-4-(trifluoromethyl)phenyl)carbamoyl)-6-(4-((3R)-4-vinyltetrahydrofuran-3-yl)phenyl)cyclohexane-1-carboxylic acid]	2.51 µM	
COC(=O)[C@H]1C[C@H]1c1ccc([C@H]2CCC[C@@H](C(=O)Nc3ccc(C(F)(F)F)cc3F)[C@@H]2C(=O)O)cc1 (racemic) [Example 67, 1:1 Mixture of (1R,2R,6S)-2-((2-fluoro-4-(trifluoromethyl)phenyl)carbamoyl)-6-(4-((1R,2S)-2-(methoxycarbonyl)cyclopropyl)phenyl)cyclohexane-1-carboxylic acid AND (1R,2R,6S)-2-((2-fluoro-4-(trifluoromethyl)phenyl)carbamoyl)-6-(4-((1S,2S)-2-(methoxycarbonyl)cyclopropyl)phenyl)cyclohexane-1-carboxylic acid]	2 µM	
O=C(O)[C@@H]1[C@@H](c2ccc([C@H]3[C@@H]4CNCC[C@@H]43)cc2)CCC[C@H]1C(=O)Nc1ccc(C(F)(F)F)cc1F (racemic) [Example 70]	15.8 µM	
Cc1nc2cc(S(=O)(=O)N(C)c3ccc([C@H]4CCC[C@H](C(=O)Nc5ccc(C(C)C)cc5)[C@@H]4C(=O)O)cc3)ccc2n1C (racemic) [Example 72, rac-(1R,2S,6S)-2-((4-isopropylphenyl)carbamoyl)-6-(4-((N,1,2-trimethyl-1H-benzo[d]imidazole)-5-sulfonamido)phenyl)cyclohexane-1-carboxylic acid]	0.00316 µM	
Cc1nc2cc(S(=O)(=O)N(C)c3ccc([C@H]4CCC[C@@H](C(=O)NC56CC(C)(C5)C6)[C@@H]4C(=O)O)cc3)ccc2n1C (racemic) [Example 178]	5.01 µM	
Cc1nc2cc(S(=O)(=O)N(C)c3ccc([C@H]4CCC[C@@H](CNc5ccc(C(C)C)cc5)[C@@H]4C(=O)O)cc3)ccc2n1C (racemic) [Example 200, rac-(1R,2R,6S)-2-(((4-isopropylphenyl)amino)methyl)-6-(4-((N,1,2-trimethyl-1H-benzo[d]imidazole)-5-sulfonamido)phenyl)cyclohexane-1-carboxylic acid]	0.0126 µM	
Cc1nc2cc(S(=O)(=O)N(C)c3ccc([C@H]4CCC[C@@H](CN5CC6(C5)CC(F)(F)C6)[C@@H]4C(=O)O)cc3)ccc2n1C (racemic) [Example 201, rac-(1R,2R,6S)-2-((6,6-difluoro-2-azaspiro[3.3]heptan-2-yl)methyl)-6-(4-((N,1,2-trimethyl-1H-benzo[d]imidazole)-5-sulfonamido)phenyl)cyclohexane-1-carboxylic acid]	25.1 µM	
Cc1nc2cc(S(=O)(=O)N(C)c3ccc([C@H]4CCC[C@@H](CN(C)C5CCOCC5)[C@@H]4C(=O)O)cc3)ccc2n1C (racemic) [Example 202, rac-(1R,2R,6S)-2-((methyl(tetrahydro-2H-pyran-4-yl)amino)methyl)-6-(4-((N,1,2-trimethyl-1H-benzo[d]imidazole)-5-sulfonamido)phenyl)cyclohexane-1-carboxylic acid]	100 µM	
O=C(O)[C@@H]1[C@@H](c2ccc(N3CCCCC3)cc2)CCC[C@H]1C(=O)Nc1ccc(C(F)(F)F)cc1F (racemic) [Example 222, rac-(1R,2R,6S)-2-((2-fluoro-4-(trifluoromethyl)phenyl)carbamoyl)-6-(4-(piperidin-1-yl)phenyl)cyclohexane-1-carboxylic acid]	0.501 µM	
O=C(O)[C@@H]1[C@@H](c2ccc(N3CCC4(CC3)CO4)cc2)CCC[C@H]1C(=O)Nc1ccc(C(F)(F)F)cc1F (racemic) [Example 228, rac-(1R,2S,6R)-2-(4-(1-oxa-6-azaspiro[2.5]octan-6-yl)phenyl)-6-((2-fluoro-4-(trifluoromethyl)phenyl)carbamoyl)cyclohexane-1-carboxylic acid]	6.31 µM	
COCCOc1cc([C@H]2CCC[C@@H](C(=O)Nc3ccc(C(F)(F)F)cc3F)[C@@H]2C(=O)O)ccc1C(F)(F)F (racemic) [Example 234, rac-(1R,2R,6S)-2-((2-fluoro-4-(trifluoromethyl)phenyl)carbamoyl)-6-(3-(2-methoxyethoxy)-4-(trifluoromethyl)phenyl)cyclohexane-1-carboxylic acid]	1 µM	
Cc1nc2cc(S(=O)(=O)N(C)c3ccc([C@H]4CN(CC(F)(F)F)C[C@@H](C(=O)Nc5ccc(C(F)(F)F)cc5F)[C@@H]4C(=O)O)cc3)ccc2n1C (relative stereo) [Example 358, rel-(3R,4S,5R)-3-((2-fluoro-4-(trifluoromethyl)phenyl)carbamoyl)-1-(2,2,2-trifluoroethyl)-5-(4-((N,1,2-trimethyl-1H-benzo[d]imidazole)-5-sulfonamido)phenyl)piperidine-4-carboxylic acid]		0.631 µM
Cc1nc2cc(S(=O)(=O)N(C)c3ccc([C@H]4C[C@H](N5CCC[C@H](F)C5)C[C@@H](C(=O)Nc5ccc(C(F)(F)F)cc5F)[C@@H]4C(=O)O)cc3)ccc2n1C (stereo in doubt) [Example 351, rel-(1R*,2R*,4S*,6S*)-2-((2-fluoro-4-(trifluoromethyl)phenyl)carbamoyl)-4-((S)-3-fluoropiperidin-1-yl)-6-(4-((N,1,2-trimethyl-1H-benzo[d]imidazole)-5-sulfonamido)phenyl)cyclohexane-1-carboxylic acid]		10 µM
Cc1nc2cc(S(=O)(=O)N(C)c3ccc([C@@H]4C[C@@H]5COC[C@@H]5[C@H](C(=O)Nc5ccc(C(F)(F)F)cc5F)[C@H]4C(=O)O)cc3)ccc2n1C (stereo in doubt) [Example 391, rel-(3aR,4R,5R,6S,7aR)-4-((2-fluoro-4-(trifluoromethyl)phenyl)carbamoyl)-6-(4-((N,1,2-trimethyl-1H-benzo[d]imidazole)-5-sulfonamido)phenyl)octahydroisobenzofuran-5-carboxylic acid]		20 µM
